Experimental data reported in PubChem BioAssay (NCI).
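Briefly, cells in 96-well plates were exposed to five compound concentrations for 48 h, and endpoints were estimated by linear interpolation. Definition used: TGI = concentration required for complete inhibition of growth.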

Legend:
Assay in all cases: NCI tumour cell line growth inhibition, 48 h
NCI-H226 lung = test system: NCI-H226 lung
DMS 114 small cell lung = test system: DMS 114 small cell lung
OVCAR-4 ovarian = test system: OVCAR-4 ovarian
RPMI-8226 leukemia = test system: RPMI-8226 leukemia
M14 melanoma = test system: M14 melanoma
SK-MEL-5 melanoma = test system: SK-MEL-5 melanoma
HCT-116 colon = test system: HCT-116 colon
SW-620 colon = test system: SW-620 colon
786-0 renal = test system: 786-0 renal
DLD-1 colon = test system: DLD-1 colon
XF 498 CNS = test system: XF 498 CNS
SR leukemia = test system: SR leukemia
LOX IMVI melanoma = test system: LOX IMVI melanoma
HOP-62 NSCLC = test system: HOP-62 NSCLC
LXFL 529 NSCLC = test system: LXFL 529 NSCLC
SNB-78 CNS = test system: SNB-78 CNS
EKVX NSCLC = test system: EKVX NSCLC
RXF 393 renal = test system: RXF 393 renal
OVCAR-3 ovarian = test system: OVCAR-3 ovarian
OVCAR-5 ovarian = test system: OVCAR-5 ovarian
HOP-92 NSCLC = test system: HOP-92 NSCLC
CAKI-1 renal = test system: CAKI-1 renal
TK-10 renal = test system: TK-10 renal
NCI-H23 lung = test system: NCI-H23 lung
UACC-257 melanoma = test system: UACC-257 melanoma
SF-539 CNS = test system: SF-539 CNS
SNB-75 CNS = test system: SNB-75 CNS
MALME-3M melanoma = test system: MALME-3M melanoma
UO-31 renal = test system: UO-31 renal
MOLT-4 leukemia = test system: MOLT-4 leukemia
SN12C renal = test system: SN12C renal
SK-MEL-2 melanoma = test system: SK-MEL-2 melanoma
SK-OV-3 ovarian = test system: SK-OV-3 ovarian
COLO 205 colon = test system: COLO 205 colon
NCI-H522 lung = test system: NCI-H522 lung
SF-268 CNS = test system: SF-268 CNS
HCT-15 colon = test system: HCT-15 colon
CCRF-CEM leukemia = test system: CCRF-CEM leukemia
KM20L2 colon = test system: KM20L2 colon
ACHN renal = test system: ACHN renal
KM12 colon = test system: KM12 colon
SNB-19 CNS = test system: SNB-19 CNS
UACC-62 melanoma = test system: UACC-62 melanoma
DMS 273 small cell lung = test system: DMS 273 small cell lung
A498 renal = test system: A498 renal
HL-60(TB) leukemia = test system: HL-60(TB) leukemia
U251 CNS = test system: U251 CNS
IGROV1 ovarian = test system: IGROV1 ovarian
SF-295 CNS = test system: SF-295 CNS
SK-MEL-28 melanoma = test system: SK-MEL-28 melanoma
NCI-H460 lung = test system: NCI-H460 lung
HT29 colon = test system: HT29 colon
HCC-2998 colon = test system: HCC-2998 colon
K-562 leukemia = test system: K-562 leukemia
OVCAR-8 ovarian = test system: OVCAR-8 ovarian
A549 NSCLC = test system: A549 NSCLC
M19-MEL melanoma = test system: M19-MEL melanoma

**Q.** With CCN(CC)c1ccc2cc3ccc(=[N+](CC)CC)cc-3oc2c1 as the compound, how does the TGI (NCI-H226 lung) read?
**A.** 15.4 µM

**Q.** What about the TGI (DMS 114 small cell lung) of the same compound?
**A.** 3.8 µM

**Q.** And the TGI (OVCAR-4 ovarian)?
**A.** 26.1 µM

**Q.** What about the TGI (RPMI-8226 leukemia) of the same compound?
**A.** 3.16 µM

**Q.** What about the TGI (M14 melanoma) of the same compound?
**A.** 6.03 µM

**Q.** And the TGI (SK-MEL-5 melanoma)?
**A.** 7.76 µM

**Q.** And the TGI (HCT-116 colon)?
**A.** 1.77 µM

**Q.** What about the TGI (SW-620 colon) of the same compound?
**A.** 1.43 µM

**Q.** What about the TGI (786-0 renal) of the same compound?
**A.** 7.73 µM

**Q.** And the TGI (DLD-1 colon)?
**A.** 14.5 µM

**Q.** And the TGI (XF 498 CNS)?
**A.** 7.99 µM

**Q.** And the TGI (SR leukemia)?
**A.** 1.52 µM

**Q.** And the TGI (LOX IMVI melanoma)?
**A.** 1.98 µM

**Q.** And the TGI (HOP-62 NSCLC)?
**A.** 13.7 µM

**Q.** What about the TGI (LXFL 529 NSCLC) of the same compound?
**A.** 1.79 µM

**Q.** What about the TGI (SNB-78 CNS) of the same compound?
**A.** 11.1 µM

**Q.** And the TGI (EKVX NSCLC)?
**A.** 19.9 µM

**Q.** What about the TGI (RXF 393 renal) of the same compound?
**A.** 11.6 µM

**Q.** What about the TGI (OVCAR-3 ovarian) of the same compound?
**A.** 2.11 µM

**Q.** What about the TGI (OVCAR-5 ovarian) of the same compound?
**A.** 19.6 µM

**Q.** What about the TGI (HOP-92 NSCLC) of the same compound?
**A.** 3.13 µM

**Q.** What about the TGI (CAKI-1 renal) of the same compound?
**A.** 18 µM

**Q.** And the TGI (TK-10 renal)?
**A.** 17.2 µM

**Q.** And the TGI (NCI-H23 lung)?
**A.** 3.04 µM

**Q.** What about the TGI (UACC-257 melanoma) of the same compound?
**A.** 10.4 µM

**Q.** And the TGI (SF-539 CNS)?
**A.** 5.12 µM

**Q.** What about the TGI (SNB-75 CNS) of the same compound?
**A.** 16.3 µM

**Q.** And the TGI (MALME-3M melanoma)?
**A.** 2.78 µM

**Q.** What about the TGI (UO-31 renal) of the same compound?
**A.** 8.52 µM

**Q.** And the TGI (MOLT-4 leukemia)?
**A.** 2.09 µM

**Q.** What about the TGI (SN12C renal) of the same compound?
**A.** 2.33 µM

**Q.** And the TGI (SK-MEL-2 melanoma)?
**A.** 2.99 µM

**Q.** And the TGI (SK-OV-3 ovarian)?
**A.** 13.6 µM

**Q.** What about the TGI (COLO 205 colon) of the same compound?
**A.** 2.05 µM

**Q.** And the TGI (NCI-H522 lung)?
**A.** 5.7 µM

**Q.** What about the TGI (SF-268 CNS) of the same compound?
**A.** 2.75 µM

**Q.** And the TGI (HCT-15 colon)?
**A.** 12.7 µM

**Q.** What about the TGI (CCRF-CEM leukemia) of the same compound?
**A.** 6.33 µM

**Q.** What about the TGI (KM20L2 colon) of the same compound?
**A.** 12.1 µM

**Q.** And the TGI (ACHN renal)?
**A.** 7.39 µM

**Q.** And the TGI (KM12 colon)?
**A.** 1.92 µM

**Q.** And the TGI (SNB-19 CNS)?
**A.** 23.3 µM

**Q.** What about the TGI (UACC-62 melanoma) of the same compound?
**A.** 9.36 µM

**Q.** What about the TGI (DMS 273 small cell lung) of the same compound?
**A.** 2.49 µM

**Q.** And the TGI (A498 renal)?
**A.** 29.8 µM

**Q.** And the TGI (HL-60(TB) leukemia)?
**A.** 0.532 µM

**Q.** What about the TGI (U251 CNS) of the same compound?
**A.** 2.02 µM

**Q.** And the TGI (IGROV1 ovarian)?
**A.** 8.36 µM

**Q.** What about the TGI (SF-295 CNS) of the same compound?
**A.** 16.3 µM

**Q.** What about the TGI (SK-MEL-28 melanoma) of the same compound?
**A.** 10.3 µM

**Q.** And the TGI (NCI-H460 lung)?
**A.** 6.62 µM

**Q.** What about the TGI (HT29 colon) of the same compound?
**A.** 4.48 µM

**Q.** And the TGI (HCC-2998 colon)?
**A.** 19 µM

**Q.** And the TGI (K-562 leukemia)?
**A.** > 100 µM

**Q.** And the TGI (OVCAR-8 ovarian)?
**A.** 1.84 µM

**Q.** And the TGI (A549 NSCLC)?
**A.** 16.6 µM

**Q.** Cn1cc/c(=N\N=c2/ccn(C)c3ccccc23)c2ccccc21 was tested. Which TGI (NCI-H226 lung) did it give?
**A.** 25.8 µM

**Q.** What about the TGI (DMS 114 small cell lung) of the same compound?
**A.** 27.7 µM

**Q.** And the TGI (OVCAR-4 ovarian)?
**A.** 25.5 µM

**Q.** And the TGI (M14 melanoma)?
**A.** 30.8 µM

**Q.** And the TGI (SK-MEL-5 melanoma)?
**A.** 29.4 µM

**Q.** What about the TGI (HCT-116 colon) of the same compound?
**A.** 23.4 µM

**Q.** What about the TGI (786-0 renal) of the same compound?
**A.** 30.1 µM

**Q.** And the TGI (DLD-1 colon)?
**A.** 29.4 µM

**Q.** And the TGI (XF 498 CNS)?
**A.** 27.1 µM

**Q.** What about the TGI (SR leukemia) of the same compound?
**A.** 47.3 µM

**Q.** And the TGI (M19-MEL melanoma)?
**A.** 34.2 µM

**Q.** And the TGI (LOX IMVI melanoma)?
**A.** 24.2 µM

**Q.** And the TGI (HOP-62 NSCLC)?
**A.** 31.6 µM

**Q.** What about the TGI (LXFL 529 NSCLC) of the same compound?
**A.** 27.2 µM

**Q.** And the TGI (SNB-78 CNS)?
**A.** 33.3 µM

**Q.** What about the TGI (EKVX NSCLC) of the same compound?
**A.** 27.8 µM

**Q.** And the TGI (RXF 393 renal)?
**A.** 27.5 µM

**Q.** And the TGI (OVCAR-3 ovarian)?
**A.** 24 µM

**Q.** And the TGI (OVCAR-5 ovarian)?
**A.** 30.3 µM

**Q.** And the TGI (CAKI-1 renal)?
**A.** 33.2 µM

**Q.** What about the TGI (TK-10 renal) of the same compound?
**A.** 36.4 µM

**Q.** What about the TGI (NCI-H23 lung) of the same compound?
**A.** 27.4 µM

**Q.** What about the TGI (UACC-257 melanoma) of the same compound?
**A.** 27.3 µM

**Q.** And the TGI (SF-539 CNS)?
**A.** 29.4 µM

**Q.** And the TGI (SNB-75 CNS)?
**A.** 61.8 µM

**Q.** And the TGI (MALME-3M melanoma)?
**A.** 31 µM

**Q.** And the TGI (UO-31 renal)?
**A.** 26.3 µM

**Q.** What about the TGI (MOLT-4 leukemia) of the same compound?
**A.** 63.9 µM

**Q.** What about the TGI (SN12C renal) of the same compound?
**A.** 33 µM

**Q.** And the TGI (SK-OV-3 ovarian)?
**A.** 31 µM

**Q.** And the TGI (COLO 205 colon)?
**A.** 22.1 µM

**Q.** What about the TGI (NCI-H522 lung) of the same compound?
**A.** 27.8 µM

**Q.** And the TGI (SF-268 CNS)?
**A.** 39.2 µM

**Q.** What about the TGI (HCT-15 colon) of the same compound?
**A.** 29.2 µM

**Q.** And the TGI (CCRF-CEM leukemia)?
**A.** 24.5 µM

**Q.** What about the TGI (KM20L2 colon) of the same compound?
**A.** 28.2 µM

**Q.** And the TGI (ACHN renal)?
**A.** 27 µM

**Q.** What about the TGI (KM12 colon) of the same compound?
**A.** 25.6 µM

**Q.** What about the TGI (SNB-19 CNS) of the same compound?
**A.** 36.3 µM

**Q.** What about the TGI (UACC-62 melanoma) of the same compound?
**A.** 29.8 µM

**Q.** And the TGI (DMS 273 small cell lung)?
**A.** 30 µM

**Q.** What about the TGI (A498 renal) of the same compound?
**A.** 37.2 µM

**Q.** And the TGI (HL-60(TB) leukemia)?
**A.** 21.6 µM

**Q.** What about the TGI (U251 CNS) of the same compound?
**A.** 29.1 µM

**Q.** And the TGI (SF-295 CNS)?
**A.** 30.9 µM

**Q.** And the TGI (SK-MEL-28 melanoma)?
**A.** 28.5 µM

**Q.** And the TGI (NCI-H460 lung)?
**A.** 25 µM

**Q.** And the TGI (HT29 colon)?
**A.** 31.7 µM

**Q.** And the TGI (HCC-2998 colon)?
**A.** 29.2 µM

**Q.** What about the TGI (K-562 leukemia) of the same compound?
**A.** 22.2 µM

**Q.** What about the TGI (OVCAR-8 ovarian) of the same compound?
**A.** 28.5 µM

**Q.** And the TGI (A549 NSCLC)?
**A.** 30.6 µM
